Test results from PMC7313537 (PLoS ONE, 2020).

Key:
Assay in all cases: Broader kinase panel (PerkinElmer)
Assay type in all cases: biochemical
Settings in all cases: 100 nM; read-out: Average Percent Inhibition
IGF1R = IGF1R (Homo sapiens, UniProt P08069)
Excerpt: (§1) […]. […] […].

Abl (H396P) = target: T1, Abl (H396P) (Homo sapiens, UniProt P00519, H396P)
T1 construct: purchased In-house HTRF panel (56 kinases) and PerkinElmer (161-kinase panel)
Excerpt: as §1

ROCK1 = ROCK1 (Homo sapiens, UniProt Q13464)
Excerpt: as §1

RSK3 = target: T2, RSK3 (Homo sapiens, UniProt Q15349)
T2 construct: purchased In-house HTRF panel (56 kinases) and PerkinElmer (161-kinase panel)
Excerpt: as §1

TEC = target: T3, TEC (Homo sapiens, UniProt P42680)
T3 construct: purchased In-house HTRF panel (56 kinases) and PerkinElmer (161-kinase panel)
Excerpt: as §1

CSNK1A1 = target: T4, CSNK1A1 (Homo sapiens, UniProt P48729)
T4 construct: purchased In-house HTRF panel (56 kinases) and PerkinElmer (161-kinase panel)
Excerpt: as §1

PKCz = target: T5, PKCz (Homo sapiens, UniProt Q05513)
T5 construct: purchased In-house HTRF panel (56 kinases) and PerkinElmer (161-kinase panel)
Excerpt: as §1

EPHA2 = EPHA2 (Homo sapiens, UniProt P29317)
Excerpt: as §1

LTK = target: T6, LTK (Homo sapiens, UniProt P29376)
T6 construct: purchased In-house HTRF panel (56 kinases) and PerkinElmer (161-kinase panel)
Excerpt: as §1

CK1d = target: T7, CK1d (Homo sapiens, UniProt P48730)
T7 construct: purchased In-house HTRF panel (56 kinases) and PerkinElmer (161-kinase panel)
Excerpt: as §1

p38alpha/SAPK2a (T106M) = target: T8, p38alpha/SAPK2a (T106M) (Homo sapiens, UniProt Q16539, T106M)
T8 construct: purchased In-house HTRF panel (56 kinases) and PerkinElmer (161-kinase panel)
Excerpt: as §1

ROS (ROS1) = target: T9, ROS (ROS1) (Homo sapiens, UniProt P08922)
T9 construct: purchased In-house HTRF panel (56 kinases) and PerkinElmer (161-kinase panel)
Excerpt: as §1

CDK5/p25 = target: T10, CDK5/p25 (Homo sapiens, UniProt Q00535)
T10 construct: purchased In-house HTRF panel (56 kinases) and PerkinElmer (161-kinase panel)
Excerpt: as §1

PKCb2 = target: T11, PKCb2 (Homo sapiens, UniProt P05771)
T11 construct: purchased In-house HTRF panel (56 kinases) and PerkinElmer (161-kinase panel)
Excerpt: as §1

FES = target: T12, FES (Homo sapiens, UniProt P07332)
T12 construct: purchased In-house HTRF panel (56 kinases) and PerkinElmer (161-kinase panel)
Excerpt: as §1

Casein kinase 1g2 = target: T13, Casein kinase 1g2 (Homo sapiens, UniProt P78368)
T13 construct: purchased In-house HTRF panel (56 kinases) and PerkinElmer (161-kinase panel)
Excerpt: as §1

EPHB4 = target: T14, EPHB4 (Homo sapiens, UniProt P54760)
T14 construct: purchased In-house HTRF panel (56 kinases) and PerkinElmer (161-kinase panel)
Excerpt: as §1

KIT[T670I] = target: T15, KIT[T670I] (Homo sapiens, UniProt P10721, T670I)
T15 construct: purchased In-house HTRF panel (56 kinases) and PerkinElmer (161-kinase panel)
Excerpt: as §1

JAK2 = target: T16, JAK2 (Homo sapiens, UniProt O60674)
T16 construct: purchased In-house HTRF panel (56 kinases) and PerkinElmer (161-kinase panel)
Excerpt: as §1

p70S6K = target: T17, p70S6K (Homo sapiens, UniProt P23443)
T17 construct: purchased In-house HTRF panel (56 kinases) and PerkinElmer (161-kinase panel)
Excerpt: as §1

SGK1 = target: T18, SGK1 (Homo sapiens, UniProt O00141)
T18 construct: purchased In-house HTRF panel (56 kinases) and PerkinElmer (161-kinase panel)
Excerpt: as §1

FGFR3 [K650E] = target: T19, FGFR3 [K650E] (Homo sapiens, UniProt P22607, K650E)
T19 construct: purchased In-house HTRF panel (56 kinases) and PerkinElmer (161-kinase panel)
Excerpt: as §1

ZIPK (DAPK3) = target: T20, ZIPK (DAPK3) (Homo sapiens, UniProt O43293)
T20 construct: purchased In-house HTRF panel (56 kinases) and PerkinElmer (161-kinase panel)
Excerpt: as §1

HGK = target: T21, HGK (Homo sapiens, UniProt O95819)
T21 construct: purchased In-house HTRF panel (56 kinases) and PerkinElmer (161-kinase panel)
Excerpt: as §1

CDK3 = target: T22, CDK3 (Homo sapiens, UniProt Q00526)
T22 construct: purchased In-house HTRF panel (56 kinases) and PerkinElmer (161-kinase panel)
Excerpt: as §1

SGK3 = SGK3 (Homo sapiens, UniProt Q96BR1)
Excerpt: as §1

FGFR3 = target: T23, FGFR3 (Homo sapiens, UniProt P22607)
T23 construct: purchased In-house HTRF panel (56 kinases) and PerkinElmer (161-kinase panel)
Excerpt: as §1

DCAMKL1 = target: T24, DCAMKL1 (Homo sapiens, UniProt O15075)
T24 construct: purchased In-house HTRF panel (56 kinases) and PerkinElmer (161-kinase panel)
Excerpt: as §1

ABL1(G250E) = target: T25, ABL1(G250E) (Homo sapiens, UniProt P00519, G250E)
T25 construct: purchased In-house HTRF panel (56 kinases) and PerkinElmer (161-kinase panel)
Excerpt: as §1

PAK2 = target: T26, PAK2 (Homo sapiens, UniProt Q13177)
T26 construct: purchased In-house HTRF panel (56 kinases) and PerkinElmer (161-kinase panel)
Excerpt: as §1

KIT = target: T27, KIT (Homo sapiens, UniProt P10721)
T27 construct: purchased In-house HTRF panel (56 kinases) and PerkinElmer (161-kinase panel)
Excerpt: as §1

CamK1d = target: T28, CamK1d (Homo sapiens, UniProt Q8IU85)
T28 construct: purchased In-house HTRF panel (56 kinases) and PerkinElmer (161-kinase panel)
Excerpt: as §1

LCK = LCK (Homo sapiens, UniProt P06239)
Excerpt: as §1

EPHB1 = target: T29, EPHB1 (Homo sapiens, UniProt P54762)
T29 construct: purchased In-house HTRF panel (56 kinases) and PerkinElmer (161-kinase panel)
Excerpt: as §1

Ca MKII_gamma = target: T30, Ca MKII_gamma (Homo sapiens, UniProt Q13555)
T30 construct: purchased In-house HTRF panel (56 kinases) and PerkinElmer (161-kinase panel)
Excerpt: as §1

TXK = target: T31, TXK (Homo sapiens, UniProt P42681)
T31 construct: purchased In-house HTRF panel (56 kinases) and PerkinElmer (161-kinase panel)
Excerpt: as §1

ABL1(Y253F) = target: T32, ABL1(Y253F) (Homo sapiens, UniProt P00519, Y253F)
T32 construct: purchased In-house HTRF panel (56 kinases) and PerkinElmer (161-kinase panel)
Excerpt: as §1

KDR = KDR (Homo sapiens, UniProt P35968)
Excerpt: as §1

PKC-eta = target: T33, PKC-eta (Homo sapiens, UniProt P24723)
T33 construct: purchased In-house HTRF panel (56 kinases) and PerkinElmer (161-kinase panel)
Excerpt: as §1

MSK1 = target: T34, MSK1 (Homo sapiens, UniProt O75582)
T34 construct: purchased In-house HTRF panel (56 kinases) and PerkinElmer (161-kinase panel)
Excerpt: as §1

PhKg1 = target: T35, PhKg1 (Homo sapiens, UniProt Q16816)
T35 construct: purchased In-house HTRF panel (56 kinases) and PerkinElmer (161-kinase panel)
Excerpt: as §1

LYNB = target: T36, LYNB (Homo sapiens, UniProt P07948)
T36 construct: purchased In-house HTRF panel (56 kinases) and PerkinElmer (161-kinase panel)
Excerpt: as §1

PKD1 = target: T37, PKD1 (Homo sapiens, UniProt Q15139)
T37 construct: purchased In-house HTRF panel (56 kinases) and PerkinElmer (161-kinase panel)
Excerpt: as §1

T8 sequence (Q16539 whole entry T106M): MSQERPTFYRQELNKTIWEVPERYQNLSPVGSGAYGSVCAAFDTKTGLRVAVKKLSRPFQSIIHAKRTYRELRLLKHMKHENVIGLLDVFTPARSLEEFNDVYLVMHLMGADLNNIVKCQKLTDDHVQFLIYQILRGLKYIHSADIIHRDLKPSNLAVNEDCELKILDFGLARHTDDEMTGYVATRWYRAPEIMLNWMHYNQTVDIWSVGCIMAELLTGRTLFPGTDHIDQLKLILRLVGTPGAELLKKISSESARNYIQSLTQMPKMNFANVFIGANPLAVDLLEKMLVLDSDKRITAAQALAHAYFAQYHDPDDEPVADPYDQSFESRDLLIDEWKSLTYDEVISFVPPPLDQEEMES
T27 sequence (P10721 26-976): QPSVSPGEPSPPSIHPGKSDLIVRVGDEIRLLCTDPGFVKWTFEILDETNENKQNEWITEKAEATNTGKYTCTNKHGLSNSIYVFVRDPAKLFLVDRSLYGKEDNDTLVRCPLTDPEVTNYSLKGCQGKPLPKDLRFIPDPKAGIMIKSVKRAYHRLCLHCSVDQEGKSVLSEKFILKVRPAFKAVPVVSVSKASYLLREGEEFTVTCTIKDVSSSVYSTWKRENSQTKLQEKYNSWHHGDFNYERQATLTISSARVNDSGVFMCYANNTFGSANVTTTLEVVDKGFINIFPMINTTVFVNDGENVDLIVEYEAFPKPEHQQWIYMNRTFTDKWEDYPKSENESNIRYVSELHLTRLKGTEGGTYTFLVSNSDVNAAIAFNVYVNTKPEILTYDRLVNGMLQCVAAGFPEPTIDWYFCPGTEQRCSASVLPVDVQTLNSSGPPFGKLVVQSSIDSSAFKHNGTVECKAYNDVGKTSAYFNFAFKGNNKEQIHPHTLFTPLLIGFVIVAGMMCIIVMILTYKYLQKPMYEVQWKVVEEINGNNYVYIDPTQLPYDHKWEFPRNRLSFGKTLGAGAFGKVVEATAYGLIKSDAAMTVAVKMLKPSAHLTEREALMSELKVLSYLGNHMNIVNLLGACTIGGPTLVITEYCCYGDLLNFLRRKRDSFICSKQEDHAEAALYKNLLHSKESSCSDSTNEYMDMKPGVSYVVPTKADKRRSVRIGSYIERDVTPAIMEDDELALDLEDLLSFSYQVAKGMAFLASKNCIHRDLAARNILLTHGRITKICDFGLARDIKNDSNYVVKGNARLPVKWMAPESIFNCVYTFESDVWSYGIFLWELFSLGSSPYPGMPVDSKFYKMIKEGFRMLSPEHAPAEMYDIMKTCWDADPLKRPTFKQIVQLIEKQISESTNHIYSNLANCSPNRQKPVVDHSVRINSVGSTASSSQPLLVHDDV
T6 sequence (P29376 17-864): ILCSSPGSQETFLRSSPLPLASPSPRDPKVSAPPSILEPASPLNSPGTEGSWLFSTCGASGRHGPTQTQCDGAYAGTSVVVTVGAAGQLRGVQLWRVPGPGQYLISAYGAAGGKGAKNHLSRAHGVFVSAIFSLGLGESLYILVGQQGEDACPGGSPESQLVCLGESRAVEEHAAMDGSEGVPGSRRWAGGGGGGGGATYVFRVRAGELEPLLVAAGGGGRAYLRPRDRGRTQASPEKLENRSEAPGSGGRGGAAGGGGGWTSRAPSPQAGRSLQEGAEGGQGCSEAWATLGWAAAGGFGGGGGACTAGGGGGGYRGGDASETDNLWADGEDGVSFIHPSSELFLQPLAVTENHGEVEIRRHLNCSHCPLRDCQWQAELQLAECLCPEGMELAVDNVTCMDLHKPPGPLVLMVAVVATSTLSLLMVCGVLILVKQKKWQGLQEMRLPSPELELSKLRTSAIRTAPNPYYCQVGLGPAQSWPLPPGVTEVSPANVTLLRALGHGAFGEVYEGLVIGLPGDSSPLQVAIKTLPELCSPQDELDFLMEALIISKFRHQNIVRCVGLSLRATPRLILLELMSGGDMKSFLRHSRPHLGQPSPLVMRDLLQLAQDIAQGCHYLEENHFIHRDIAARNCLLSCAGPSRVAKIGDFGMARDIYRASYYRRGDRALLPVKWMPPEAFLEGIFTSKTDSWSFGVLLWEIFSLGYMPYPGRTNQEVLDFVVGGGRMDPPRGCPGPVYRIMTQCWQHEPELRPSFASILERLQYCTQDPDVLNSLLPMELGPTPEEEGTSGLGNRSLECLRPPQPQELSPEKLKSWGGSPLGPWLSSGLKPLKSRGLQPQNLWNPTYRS
Sequence of LCK (P06239 whole entry, species assumed): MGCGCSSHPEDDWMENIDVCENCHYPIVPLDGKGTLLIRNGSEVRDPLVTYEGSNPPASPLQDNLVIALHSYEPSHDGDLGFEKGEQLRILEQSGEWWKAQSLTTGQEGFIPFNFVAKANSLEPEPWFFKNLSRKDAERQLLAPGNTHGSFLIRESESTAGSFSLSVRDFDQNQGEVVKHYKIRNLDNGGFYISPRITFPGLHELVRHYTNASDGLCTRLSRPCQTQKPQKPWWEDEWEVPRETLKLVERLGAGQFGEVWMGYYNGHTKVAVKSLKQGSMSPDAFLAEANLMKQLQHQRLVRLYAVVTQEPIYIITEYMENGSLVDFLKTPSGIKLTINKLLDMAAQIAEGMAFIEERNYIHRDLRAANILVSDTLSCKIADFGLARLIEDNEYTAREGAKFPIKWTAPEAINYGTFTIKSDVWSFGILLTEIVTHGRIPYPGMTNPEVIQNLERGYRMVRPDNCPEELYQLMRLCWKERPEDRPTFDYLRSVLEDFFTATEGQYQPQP
T5 sequence (Q05513 whole entry): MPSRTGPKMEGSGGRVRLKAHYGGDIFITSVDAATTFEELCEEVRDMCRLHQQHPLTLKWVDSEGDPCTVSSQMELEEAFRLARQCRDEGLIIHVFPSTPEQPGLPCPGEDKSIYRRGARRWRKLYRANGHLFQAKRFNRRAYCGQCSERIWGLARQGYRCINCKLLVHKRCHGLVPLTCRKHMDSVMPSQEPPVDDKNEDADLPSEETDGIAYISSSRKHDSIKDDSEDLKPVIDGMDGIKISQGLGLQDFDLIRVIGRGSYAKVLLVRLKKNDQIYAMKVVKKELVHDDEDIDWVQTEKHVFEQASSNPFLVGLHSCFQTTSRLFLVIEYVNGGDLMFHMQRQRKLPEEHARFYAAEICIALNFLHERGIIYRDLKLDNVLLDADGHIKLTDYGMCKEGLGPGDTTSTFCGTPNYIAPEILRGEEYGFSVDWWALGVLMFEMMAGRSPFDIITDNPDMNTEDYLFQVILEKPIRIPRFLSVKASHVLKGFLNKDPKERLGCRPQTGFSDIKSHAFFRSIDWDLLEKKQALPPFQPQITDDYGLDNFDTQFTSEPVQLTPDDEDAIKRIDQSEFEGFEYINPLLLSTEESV
T36 sequence (P07948 1-491 isoform P07948-2): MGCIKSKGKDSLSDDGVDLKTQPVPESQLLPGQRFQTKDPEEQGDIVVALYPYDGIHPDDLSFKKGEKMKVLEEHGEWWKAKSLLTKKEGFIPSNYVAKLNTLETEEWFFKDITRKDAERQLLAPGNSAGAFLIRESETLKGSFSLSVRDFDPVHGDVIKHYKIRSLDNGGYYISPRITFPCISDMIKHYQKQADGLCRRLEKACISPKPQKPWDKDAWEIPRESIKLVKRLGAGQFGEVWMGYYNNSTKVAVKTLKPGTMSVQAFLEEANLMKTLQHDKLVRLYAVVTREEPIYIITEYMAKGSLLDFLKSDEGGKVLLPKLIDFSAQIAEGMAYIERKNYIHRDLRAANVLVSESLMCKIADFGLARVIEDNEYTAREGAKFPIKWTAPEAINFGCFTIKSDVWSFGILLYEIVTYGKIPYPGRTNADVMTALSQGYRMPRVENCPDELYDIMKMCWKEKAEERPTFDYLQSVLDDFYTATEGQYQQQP
T35 sequence (Q16816 whole entry): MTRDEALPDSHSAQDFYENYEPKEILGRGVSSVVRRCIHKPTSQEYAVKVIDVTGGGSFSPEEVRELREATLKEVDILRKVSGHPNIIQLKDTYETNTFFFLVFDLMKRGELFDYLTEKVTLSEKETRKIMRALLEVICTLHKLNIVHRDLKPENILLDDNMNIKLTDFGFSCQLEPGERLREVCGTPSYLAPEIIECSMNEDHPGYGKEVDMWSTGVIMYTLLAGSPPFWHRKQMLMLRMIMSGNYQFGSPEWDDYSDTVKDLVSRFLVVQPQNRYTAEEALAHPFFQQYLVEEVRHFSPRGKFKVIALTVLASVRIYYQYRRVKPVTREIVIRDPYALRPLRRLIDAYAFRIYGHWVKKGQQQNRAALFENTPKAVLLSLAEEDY
T10 sequence (Q00535 whole entry): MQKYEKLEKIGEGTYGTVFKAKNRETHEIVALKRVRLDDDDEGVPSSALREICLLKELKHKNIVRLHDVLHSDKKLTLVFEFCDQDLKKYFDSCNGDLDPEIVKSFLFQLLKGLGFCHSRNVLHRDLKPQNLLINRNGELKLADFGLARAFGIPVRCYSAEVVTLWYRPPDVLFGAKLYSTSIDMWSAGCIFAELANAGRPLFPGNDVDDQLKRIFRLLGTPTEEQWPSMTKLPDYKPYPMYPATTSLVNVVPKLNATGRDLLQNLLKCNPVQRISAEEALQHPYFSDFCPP
T10 sequence (Q15078 99-307 partner limits assumed): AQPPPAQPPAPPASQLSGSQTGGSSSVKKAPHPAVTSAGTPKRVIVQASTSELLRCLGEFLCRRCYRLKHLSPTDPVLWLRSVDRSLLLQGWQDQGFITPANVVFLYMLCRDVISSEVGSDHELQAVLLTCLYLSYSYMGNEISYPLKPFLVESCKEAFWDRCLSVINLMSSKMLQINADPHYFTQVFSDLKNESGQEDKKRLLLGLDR
T15 sequence (P10721 26-976 T670I): as the sequence (P10721 26-976) above, with T645I counted along it

SMILES: CCN1C(=O)N(c2c(F)c(OC)cc(OC)c2F)Cc2cnc3[nH]c(CN4CCOCC4)cc3c21 [INCB054828, pemigatinib]
- inhibition at 0.1 µM (IGF1R): 1%
- inhibition at 0.1 µM (Abl (H396P)): -1%
- inhibition at 0.1 µM (ROCK1): -3%
- inhibition at 0.1 µM (RSK3): -3%
- inhibition at 0.1 µM (TEC): 19%
- inhibition at 0.1 µM (CSNK1A1): -1%
- inhibition at 0.1 µM (PKCz): 1%
- inhibition at 0.1 µM (EPHA2): 3%
- inhibition at 0.1 µM (LTK): -17%
- inhibition at 0.1 µM (CK1d): -1%
- inhibition at 0.1 µM (p38alpha/SAPK2a (T106M)): -3%
- inhibition at 0.1 µM (ROS (ROS1)): 3%
- inhibition at 0.1 µM (CDK5/p25): -4%
- inhibition at 0.1 µM (PKCb2): 0%
- inhibition at 0.1 µM (FES): -11%
- inhibition at 0.1 µM (Casein kinase 1g2): -1%
- inhibition at 0.1 µM (EPHB4): 4%
- inhibition at 0.1 µM (KIT[T670I]): -2%
- inhibition at 0.1 µM (JAK2): 8%
- inhibition at 0.1 µM (p70S6K): 8%
- inhibition at 0.1 µM (SGK1): 1%
- inhibition at 0.1 µM (FGFR3 [K650E]): 84%
- inhibition at 0.1 µM (ZIPK (DAPK3)): 7%
- inhibition at 0.1 µM (HGK): -6%
- inhibition at 0.1 µM (CDK3): 11%
- inhibition at 0.1 µM (SGK3): 13%
- inhibition at 0.1 µM (FGFR3): 98%
- inhibition at 0.1 µM (DCAMKL1): -4%
- inhibition at 0.1 µM (ABL1(G250E)): 1%
- inhibition at 0.1 µM (PAK2): 0%
- inhibition at 0.1 µM (KIT): 4%
- inhibition at 0.1 µM (CamK1d): 14%
- inhibition at 0.1 µM (LCK): -2%
- inhibition at 0.1 µM (EPHB1): 0%
- inhibition at 0.1 µM (Ca MKII_gamma): -9%
- inhibition at 0.1 µM (TXK): -7%
- inhibition at 0.1 µM (ABL1(Y253F)): 2%
- inhibition at 0.1 µM (KDR): 45%
- inhibition at 0.1 µM (PKC-eta): -4%
- inhibition at 0.1 µM (MSK1): 1%
- inhibition at 0.1 µM (PhKg1): -2%
- inhibition at 0.1 µM (LYNB): 9%
- inhibition at 0.1 µM (PKD1): -3%
